Measurements: US7071188B2 (priority 2001, dated 2006)

Experiments:
[1] = system: Fusarium (FFUSARGRAMI); assay: Seed treatment test for field corn and sweet corn, in-furrow Fusarium inoculation (Example 1); assay type: in vivo, Fusarium on corn variety H-8874RR; conditions: rates gai/100 kg: Apron XL 3LS 1, Maxim XL 3.5, CGA-301940 2.5, CAPTAN 55 + Allegiance-FL 2
Text: (§1) Seed Treatment Test for Field Corn and Sweet Corn

[2] = system: natural disease pressure on corn variety N58-D1; assay: Seed treatment test for field corn and sweet corn, no inoculation, natural disease pressure (Example 2); assay type: in vivo; conditions: rates gai/100 kg: Apron XL 3LS 1, Maxim XL 3.5, CGA-301940 2.5, CAPTAN 55 + Allegiance-FL 2
Text: as §1

With `CO/C=C(/C(=O)OC)c1ccccc1Oc1cc(Oc2ccccc2C#N)ncn1` [CGA-301940, Azoxystrobin] the “Stand Count percent increase (27 DAP)” value ([1]; 27 DAP, vs Check (inoculated)) was −10.3%, the “Stand Count (No Plants/Plot) 27 DAP” value ([1]; 27 DAP) was 13.0b No Plants/Plot and the “% Vigor percent increase (47 DAP)” value ([1]; 47 DAP, vs Check (inoculated)) was 6.6%. The “Stand Count percent increase (47 DAP)” value ([1]; 47 DAP, vs Check (inoculated)) was 9.8%, the “% Vigor 47 DAP” value ([1]; 47 DAP) was 80.0a % and the “Stand Count (No Plants/Plot) 47 DAP” value ([1]; 47 DAP) was 42.3d No Plants/Plot. For the same molecule, the “Stand Count percent increase (33 DAP)” value ([2]; 33 DAP, vs Check (non-inoculated)) was 4.5%, the “Stand Count (No Plants/Plot) 33 DAP” value ([2]; 33 DAP) was 46.5c No Plants/Plot and the “Stand Count percent increase (49 DAP)” value ([2]; 49 DAP, vs Check (non-inoculated)) was 6.0%. The “Stand Count (No Plants/Plot) 49 DAP” value ([2]; 49 DAP) was 52.8c No Plants/Plot.
